Consider two molecules from patent US20230183266A1, “CRYSTALLINE FORMS OF RET INHIBITOR AND PREPARATION THEREOF” (LOXO ONCOLOGY, INC., priority 2021, published 2023).

What all share (format): physicochemical
A short description of data set [1]: solubility of crystalline forms in organic solvents. From the text: Forms A and B have similar solubilities.
Data set [2] in a line: hygroscopicity of the anhydrous polymorphs. The settings on record: Form A compared with Form B. From the text: (§1) In some embodiments, removal of the solvent molecule(s) from selpercatinib in solvated form can provide for selpercatinib Form A.
A short description of data set [3]: solid-form stability (thermodynamic stability, form conversion on storage, isolation and drying).
From the text: as §1
As noted above, selpercatinib can form solvates; and it can also form metastable solid forms, both of which are generally not stable on drying. […] The solvates and metastable forms usually revert to Form A during isolation and/or drying, although films or amorphous material occasionally form. The chloroform and 1,4-dioxane solvates were stable upon isolation/drying. Thus, one strategy for preparing selpercatinib Form A is to convert amorphous selpercatinib and/or selpercatinib Form B into a solvate and then desolvating the solvate, to afford Form A.
In one preferred embodiment, the Form A material is washed with MTBE or heptane and then dried under vacuum at a temperature of about 40 to about 45° C.
The formation of the solvate appears to remove any dependence on, or effect from, the seed crystal form.

Structures are written as SMILES. Values after ≈ are worked out from the molar mass of the structure shown.

The term solubility denotes the dissolved amount per volume that the medium holds. `COc1ccc(CN2C3CC2CN(c2ccc(-c4cc(OCC(C)(C)O)cn5ncc(C#N)c45)cn2)C3)cn1` [Form A, 6-(2-hydroxy-2-methylpropoxy)-4-(6-(6-((6-methoxypyridin-3-yl)methyl)-3,6-diazabicyclo[3.1.1]heptan-3-yl)pyridin-3-yl)pyrazolo[1,5-a]pyridine-3-carbonitrile]: the “solubility in many organic solvents” value in data set [1] (25° C., methyl ethyl ketone (MEK), acetone, many alcohol based solvents) was “poor”. In addition, in data set [1] (organic solvents: dichloromethane, dimethylsulfoxide, organic solvent or mixture, moderate solubility, 25° C., DCM, DMSO, THF), the solubility is 3 to 30 mg/mL (≈ 5.71 to 57.1 mM). Also, the hygroscopicity entry in data set [2] is recorded as “slightly more hygroscopic”. The thermodynamic stability entry in data set [3] (Form A compared with Form B) is “thermodynamically less stable”. Besides, the interconversion of polymorphs entry in data set [3] (typical storage or preparative conditions) is reported as “do not readily inter-convert”. Also, the “form conversion on drying of wet cake” value in data set [3] (wet cake dried at 45° C., ambient pressure, over several days) is given as “slowly converted the Form A to Form B”.
In the case of `COc1ccc(CN2C3CC2CN(c2ccc(-c4cc(OCC(C)(C)O)cn5ncc(C#N)c45)cn2)C3)cn1` [Form B, 6-(2-hydroxy-2-methylpropoxy)-4-(6-(6-((6-methoxypyridin-3-yl)methyl)-3,6-diazabicyclo[3.1.1]heptan-3-yl)pyridin-3-yl)pyrazolo[1,5-a]pyridine-3-carbonitrile], the solubility in anisole result in data set [1] (anisole) is reported as “almost no solubility”.
